Measured values: US20090068143A1, “ORALLY EFFECTIVE C[…]” (priority 2005, published 2009)
Where two headings read alike, the source gives them in different places.

Legend:
CB2 receptor = CB2 receptor (Homo sapiens, UniProt P34972); assay: CB2 binding assay
CB1 receptor = CB1 receptor (Homo sapiens, UniProt P21554); assay: CB1 binding assay
[1] = Stability in aqueous solutions; format: physicochemical; conditions: 95 μg/ml in citrate buffer (pH 7.1), 4° C.
Description: Stability of compounds of the invention in aqueous solutions was compared. Compounds were dissolved in buffer phosphate solutions and their concentration monitored using HPLC and spectrophotometer methodology. While compound 18F at concentration of 2 mg/ml in phosphate buffer (pH 7.0) was stable for at least 3 months at 4° C., compound 18B at concentration of 95 μg/ml in citrate buffer (pH 7.1) readily hydrolyzed in less than 24 hours at 4° C. Therefore, compounds that were designed following the same rational yielded unexpectedly divergent outcome, for instance in connection with stability in aqueous solutions.

iNOS = iNOS gene expression in LPS activated RAW 264.7 macrophages (real-time RT-PCR); format: cell-based, mouse; conditions: 10 μM, 1 h pre-treatment, 3 hrs after LPS activation
Description: RAW 264.7 macrophages, a mouse cell line (ATCC # TIB 71), were grown in Dulbecco's modified Eagle's medium (DMEM) with 4 mM L-glutamine adjusted to contain 1.5 g/L sodium bicarbonate, 4.5 g/L glucose, and 10% heat inactivated fetal bovine serum. Cells were grown in tissue culture flasks and seeded at appropriate density into 6 wells tissue culture plates. Four million Raw cells in half a milliliter were stimulated with 1 μg/ml Lipopolysaccharide E. coli 055:B5 (DIFCO Laboratories). The mouse macrophages were pre-treated for one hour with controls or 10 μM of test compounds, and later on activated with LPS. RNA samples were extracted from the cells 3 hrs after activation and iNOS gene expression levels were analyzed by real-time RT-PCR as previously described. For western blot analysis, compounds were tested at 1, 5 and 10 μM and cells were harvested 24 hrs after LPS stimulation. Supernatant were collected and NO secretion was analyzed using ELISA. Cells were washed 3 times with cold PBS, scrapped and lyzed in 100 μl cell lysis buffer containing 20 mM HEPES, pH 7.6, 150 mM NaCl, 1.5 mM MgCl2, 0.2 mM EDTA, 1% Triton X-100, 10% glycerol, 1 mM DTT, 1 mM PMSF, 10 μg/ml aprotinin. 5 µg/ml leupeptin, 10 mM p-nitrophenyl phosphate, 100 mM β-glycerophosphate, 1 mM sodium fluoride, and 0.1 μM sodium orthovanadate. Cells were lyzed on ice for 10 minutes before further processing.
The results of this experiment are expressed as fold activation of iNOS over non-activated macrophages, after normalization to cyclophilin A expression. Compound 18A inhibits 63% of iNOS gene expression, and compounds 18B, 18E and 18F inhibit 55%, 25% and 100% respectively. […] This surprising observation strengthen the fact that compounds of the invention, though chemically related, have distinct and unexpected properties.

[2] = Actual solubility in aqueous buffers / cosolvent (HPLC, spectrophotometer); format: physicochemical
Description: The actual solubility of certain compounds of the invention was assessed in aqueous buffers and final concentration of compounds was determined using HPLC and spectrophotometer methodologies. […] Therefore, compounds that were designed following the same rational yielded unexpectedly divergent outcome, for instance in connection with solubility in aqueous solutions.
It should be noted that following lyophilization compound 18F could be dissolved in 80 mM phosphate buffer at pH 6.9 even more efficiently at concentrations up to 60 mg/ml, about two order of magnitudes higher than expected.
Approximately 11 g of compound 18F were lyophilized in one lyophilization cycle. A cosolvent mixture comprising 38.6% w/v of compound 18F was divided into several dishes to fit the lyophilization chamber. As a result of lyophilization, a dry product with improved physical properties such as flowability and less stickiness was obtained.

visceral pain = assay: Visceral pain, acetic acid induced writhing responses; format: in vivo, ICR mice; conditions: for inhibition of writhing responses as compared to vehicle treated group: 2 mg/kg i.v.; for inhibition of pain response as compared to untreated animals: 10 mg/kg p.o. in phosphate buffer
Description: For the i.v. part of the study, compounds were dissolved in CREMOPHOR®:Ethanol and diluted 1:20 in saline prior to injection, fifteen minutes before pain induction. When compounds were delivered per os, they were dissolved in phosphate buffer or in CREMOPHOR®:Ethanol as previously described and administered 1 hour before pain induction. Each treatment group, except for controls comprising at least 30 animals, was composed of at least 6 animals. Fifteen or sixty minutes later, depending on the route selected for drug administration, the mice were injected i.p. with 10 ml/kg of 0.6% acetic acid and the number of visceral pain related behaviors (writhing, stretching, contractions of the abdomen accompanied by an elongation of the body and extension of the hind limbs) is counted over a period of 5 minutes, starting 5 minutes after the acetic acid administration. These visceral pain related behaviors are globally defined as writhing responses (WR). The results are expressed as mean number of writhing responses±SEM. Data were analyzed using analysis of variance (ANOVA) followed by post-hoc Fisher test. A value of p<0.05 was considered to be statistically significant and is indicated on the figure by an asterisk over the relevant treatment group.
The following results were obtained at 2 mg/kg i.v. of test compounds or, in the case of the study performed with cannabinoid receptor antagonists, 1 mg/kg test compound or antagonist alone and 1 mg/kg test compound+1 mg/kg antagonist. In a separate study, it was shown that analgesic activity of compounds of the invention was dose related.

inflammatory pain = assay: Inflammatory pain and paw edema, λ carrageenan; format: in vivo, Sprague Dawley rats
Description: Male Sprague Dawley rats (average body weight 200 g, Harlan, Israel) were transiently sedated by placement on dry ice for the duration of the injections. Rats were injected subcutaneously, in the subplantar region of one (right) paw with 0.1 ml of 2% w/v λ Carrageenan in sterile saline. […] Test compounds were administered p.o. by oral gavage immediately after the carrageenan injection as pretreatment. Vehicle (PB) treated animals were used as controls. Before induction of inflammatory pain and three hours after injection, the animals reactions to pain stimuli were tested in two systems. The first stimulus was thermal and assessed by the Plantar Test according to Hargreaves, using Ugo Basile Model 7370. The scale was set to an intensity of 50 arbitrary units. The latency time till the animal lift a paw as a reaction to the thermal stimulus was recorded for both the inflamed and non-inflamed hind paws. The second stimulus was mechanical (tactile) and assessed using a Dynamic Plantar Sesthesiomether (Ugo Basile Model 73400-002). […] Finally, the impact on paw edema was assessed. Paw thickness is measured using a dial thickness gauge (Spring-dial, constant low pressure gauge, Mitutoyo, TG/L-1, 0.00 mm) and paw volume is measured using a plethysmometer (model #7150, Ugo Basile, Italy). At the end of the study, animals were euthanized with an i.p. injection of 100 mg/kg pentobarbitone.
The results are measured as the differences between the two hind paws at time 0 and 3 hours both as ALT, for the latency time in the thermal part of the study, and as ΔForce, for the mechanical part of the study. The paw volume is expressed as percent from vehicle treated animals. Results are expressed as mean±SEM for each treatment group and the differences among those groups are analyzed by analysis of variance (ANOVA) followed by post-hoc Tukey's test. A value of p<0.05 was considered to be statistically significant and is indicated on the figure by an asterisk over the relevant treatment group.

[3] = tested on: Taxol® induced neuropathic pain; assay: Taxol® induced neuropathic pain; format: in vivo, Sprague Dawley rats; conditions: gabapentin 100 mg/kg i.p., morphine 5 mg/kg i.p.; not statistically significant
Description: Male Sprague Dawley rats (average body weight 150-200 g, Harlan, Israel) were administered i.p. with 6 mg/kg Taxol® (Bristol Myers Squibb, USA) every other day for 9 days. On day 13, baseline pain threshold was measured. One hour later, the animals were administered with 5 ml/kg i.p. of vehicle (PB) only and pain threshold was re-established. After an additional hour animals were treated with various doses of compound 18F ranging from 0.5 mg/kg up to 10 mg/kg administered i.p. Morphine at 5 mg/kg i.p. and gabapentin at 100 mg/kg i.p served as positive controls. Each treatment group comprised at least eight animals. One hour post drug administration pain threshold was monitored using thermal and mechanical stimuli as previously described. At the end of the study, rats were euthanized with sodium pentobarbitone 100 mg/kg i.p. Sample rats were then transfused with saline and heparinized 4% formaldehyde solution. The L4-L5 area of the spinal cord and the sciatic nerve were taken for histopathology assessment.
The time latencies for thermal hyperalgesia, and force needed to induce pain of the different treatment groups are compared, using one way ANOVA (analysis of variance), followed by Duncan's post hoc test. A p<0.05 value was considered statistically significant and is indicated on the figure by an asterisk over the relevant treatment group.

EAE = conditions: 40 mg/kg p.o. daily for 21 days from disease induction, cited from earlier work

CB2 receptor, sequence (P34972 whole entry): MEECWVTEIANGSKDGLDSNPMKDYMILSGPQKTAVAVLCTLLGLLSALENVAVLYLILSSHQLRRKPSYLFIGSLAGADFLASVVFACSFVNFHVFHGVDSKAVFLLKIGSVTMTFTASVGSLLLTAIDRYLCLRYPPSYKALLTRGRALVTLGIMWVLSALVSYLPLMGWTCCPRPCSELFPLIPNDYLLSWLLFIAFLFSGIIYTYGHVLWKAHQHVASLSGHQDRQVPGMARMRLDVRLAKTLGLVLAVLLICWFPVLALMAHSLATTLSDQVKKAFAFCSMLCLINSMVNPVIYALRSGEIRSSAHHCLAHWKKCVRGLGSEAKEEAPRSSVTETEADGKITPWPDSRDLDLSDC
CB1 receptor, sequence (P21554 whole entry): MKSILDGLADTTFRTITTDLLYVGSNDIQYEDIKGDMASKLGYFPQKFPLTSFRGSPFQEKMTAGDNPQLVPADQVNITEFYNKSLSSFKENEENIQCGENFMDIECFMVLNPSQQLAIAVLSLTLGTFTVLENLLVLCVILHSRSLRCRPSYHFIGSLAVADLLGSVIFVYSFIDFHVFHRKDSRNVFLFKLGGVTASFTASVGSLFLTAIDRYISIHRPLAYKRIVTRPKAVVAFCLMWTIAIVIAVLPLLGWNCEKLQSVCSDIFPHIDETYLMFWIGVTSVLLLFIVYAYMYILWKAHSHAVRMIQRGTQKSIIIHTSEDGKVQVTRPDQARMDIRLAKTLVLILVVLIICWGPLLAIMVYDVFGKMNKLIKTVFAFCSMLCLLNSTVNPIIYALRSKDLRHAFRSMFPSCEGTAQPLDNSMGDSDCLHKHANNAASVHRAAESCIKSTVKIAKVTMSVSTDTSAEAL

Compound	IC50 (CB2 receptor) [nM]	IC50 (CB1 receptor) [nM]	inhibition of iNOS gene expression (iNOS) [%]	inhibition of writhing responses as compared to vehicle treated group (visceral pain)	inhibition of pain response as compared to untreated animals (visceral pain)	effect on pain threshold [3]	other results
CCCCCCC(C)(C)c1cc(O)c([C@H]2CC(=O)C3CC2C3(C)C)c(OC(=O)CCC(=O)O)c1 (single isomer, unassigned; (-)) [Compound 18B, (−)-4-{4-[1,1-dimethylheptyl]-2-succinate-6-hydroxy-phenyl}-6,6-dimethyl-bicyclo[3.1.1]heptan-2-one]	1.2	41	55	95%	88%	–	time to hydrolysis in solution [1]: less than 24 hours; divergence of solubility from prediction ([2]; aqueous citrate buffer (pH 7.1) vs calculated): < 4 fold; solubility ([2]; aqueous citrate buffer, pH 7.1, aqueous buffer, thermodynamic from solid, aqueous citrate buffer (pH 7.1), read-out: actual solubility): ≤ 95 µg/mL
CCCCCCC(C)(C)c1cc(OC(=O)/C=C/C(=O)O)c(C2CC(=O)[C@H]3C[C@@H]2C3(C)C)c(OC(=O)/C=C/C(=O)O)c1 (single isomer, unassigned; (-)) [Compound 18G, (−)-4-{4-[1,1-Dimethylheptyl]-2,6-difumarate-phenyl}-6,6-dimethyl-bicyclo[3.1.1]heptan-2-one]	30	325	–	91%	56%	–	paw volume, percent of vehicle (inflammatory pain; 20 mg/kg p.o.): 96%; reduction of ΔLT, thermal stimulus (inflammatory pain; 20 mg/kg p.o.): ineffective; reduction in Δforce, mechanical stimulus (inflammatory pain; single dose of 20 mg/kg p.o.): 8%
NCC1(CC(=O)O)CCCCC1 [Gabapentin, reference compound]	–	–	–	–	–	trend of increasing the pain threshold	activity in visceral pain model (visceral pain; fumaric acid up to 5 mg/kg, Gabapentin up to 200 mg/kg, celecoxib up to 10 mg/kg): inactive
CN1CC[C@]23c4c5ccc(O)c4O[C@H]2[C@@H](O)C=C[C@H]3[C@H]1C5 [morphine, reference compound]	–	–	–	–	–	trend of increasing the pain threshold	–
CCCCCc1cc(O)c2c(c1)OC(C)(C)[C@@H]1CC=C(C)C[C@@H]21 [Δ^8-THC, reference compound]	–	–	–	–	–	–	solubility in aqueous buffer ([2]; in words): not soluble in aqueous buffer; decrease of number of writhing responses as compared to the untreated group (visceral pain; 10 mg/kg p.o. in CREMOPHOR®:Ethanol, not statistically significant vs vehicle): 47%; decrease of mean disease severity (EAE): 20%; mean disease severity (EAE; vehicle 5.5±0.8): 4.4±0.8
(−)-4-{4-[1,1-Dimethylpentyl]-2-succinate-6-hydroxy-phenyl}-6,6-dimethyl-bicyclo[3.1.1]heptan-2-one [Compound 18E]	–	–	25	minimal effect	not effective	–	IC50 (CB2 receptor; read-out: CB2 IC50, displacement of radioligand): 7.4 nM; IC50 (CB1 receptor; read-out: CB1 IC50, displacement of radioligand): 315 nM
